Test results as given in paper PMC10047683, “A Novel Family of Lysosomotropic Tetracyclic Compounds for Treating Leukemia” (Cancers, 2023).

Key:
AML cell lines = assay: Seahorse oxygen consumption (OCR); type: cell-based; settings: 5 and 10 µM, 24 h
Description: Seahorse studies were performed using the Agilent Seahorse XF Real-Time ATP Rate Assay Kit. […] Cells were washed and suspended in Seahorse medium (Seahorse XF medium with 2 mM glutamine, 10 mM glucose, 2 mM pyruvate) at a concentration of 1.4 × 10^6 (Mono Mac1) and 2.4 × 10^6 (HL60) cells per mL; 50 μL per well were seeded in 96-well Seahorse plates precoated with polylysine, centrifuged, and left to adhere for 20 min at 37 °C before adding prewarmed Seahorse medium to a final volume of 180 μL per well. Basal OCR and ECAR were measured, and the ATP rate assay was performed with the sequential injection of 1.5 μM oligomycin and 0.5 μM rotenone/antimycin A. A detailed description of this protocol was provided by the manufacturers. Mitochondrial ROS was quantified using the MitoSOX Red Mitochondrial Superoxide Indicator (Thermo Fischer Scientific, Waltham, MA, USA), as previously described. The activation of executive caspases was determined using CaspaseGlo® 3/7 Assay (Promega), following the manufacturer’s recommendations. The detection of Annexin-V staining was also described previously.

SKM-1 = assay: Dose-response viability curves in AML cell lines; type: cell-based; settings: Homo sapiens, 48 h
Description: (§1) First, 2 × 10^5 (72 h assays in cell lines (Supplementary File S1)), 3 × 10^5 (48 h assays in cell lines) or 7.5 × 10^5 (primary AML, healthy donor buffy coats) cells per mL were cultured in 96-well plates, and all drugs were added at the indicated concentrations. In α-tocopherol experiments, cells were treated with growing concentrations of α-tocopherol and EDK drugs for 48 h. In the NAC and 3MA experiments, treatment was simultaneous with EDK compounds. In glucose deprivation experiments, cells were cultivated with a standard medium (glucose high, 2 g/L), a standard medium without glucose, or a standard medium with galactose (2 g/L) and without glucose. Cell viability was measured via 7-AAD (eBioscience) exclusion and Hoechst33342 (Sigma-Aldrich, St. Louis, MO, USA) positivity staining via flow cytometry, and the cell count was obtained through volume. In the experiments with the primary cells, analyses were performed inside the blast population as detected via blast gates (CD45^low SSC^int). For solid tumor cell lines, viability was analyzed using CellTiter-Glo® Luminescent Cell Viability Assay (Promega).

U937 = assay: Dose-response viability curves in AML cell lines; type: cell-based; settings: Homo sapiens, U-937, 48 h
Description: as §1

HL60 = assay: Dose-response viability curves in AML cell lines; type: cell-based; settings: Homo sapiens, HL-60, 48 h
Description: as §1

KG1 = assay: Dose-response viability curves in AML cell lines; type: cell-based; settings: Homo sapiens, KG-1, 48 h
Description: as §1

MonoMac1 = assay: Dose-response viability curves in AML cell lines; type: cell-based; settings: Mono-Mac-1, 48 h
Description: as §1

THP1 = assay: Dose-response viability curves in AML cell lines; type: cell-based; settings: Homo sapiens, THP-1, 48 h
Description: as §1

Kasumi-1 = assay: Dose-response viability curves in AML cell lines; type: cell-based; settings: Homo sapiens, 48 h
Description: as §1

[1] = ADME-Tox: clearance / metabolic rate; type: in vitro ADME
Description: All ADMET studies were performed in Eurofins Discovery Services (CEREP laboratories, Celle-Lévescault France). The pharmacokinetic studies were performed in Draconis Pharma SL (Barcelona, Spain) in CD-1 mice treated with 30 mg/kg EDK87 or EDK88 via SC or OG. Blood was collected by cardiac puncture at 0.5, 1, 2, 4, or 24 h.

[2] = system: panel of 7 AML cell lines; assay: Dose-response viability curves, whole panel; type: cell-based; settings: mean of the 7 AML cell lines; 48 h
Description: as §1

TFEB = TFEB promoter-luciferase reporter; type: cell-based; settings: HEK293T; 10 and 20 µM, 24 h
Description: We transfected 2.5 × 10^5 HEK-293T cells per condition using the jetPEI DNA transfection reagent (Polyplus) with TFEB promoter-luciferase reporter Addgene#66801. Then, at 24 h post-transfection, cells were treated at the indicated conditions, and the 48 h post-transfection luminescence of lysed cells was analyzed according to the manufacturer’s specifications.

MonoMac1 AML cells = assay: MonoMac1 AML xenograft, bone-marrow engraftment; type: in vivo, NSG mice; settings: 30 mg/kg IP, 10 consecutive days; engraftment at Day 12
Description: We myeloablated 6–8-week-old NOD.Cg-Prkdc^scid Il2rg^tm1Wjl/SzJ (NSG, Jackson Laboratories) mice with busulfan (30 mg/kg IP) at Day 0. The next day, mice were transplanted with KG1 (10 million cells per mouse) or MonoMac1 (1 million per mouse) AML cells that had previously been transduced with luciferase-containing plasmid pLL-EF1a-rFLuc-T2A-GFP (Systems Bioscience #LL410PA-1) and left untreated for 3 (MonoMac1) or 5 days (KG1). For IP administration, compounds were dissolved in DMSO and diluted in saline prior to injection. For SC treatments, drugs were solubilized using Tween 80 (Escuder) and high-viscosity carboxymethylcellulose (CMC, Merck). For bioluminescence detection, mice were SC-administered 150 mg/kg Xenolight D-luciferin potassium salt luminescent substrate (Perkin Elmer), and the luminescence of isoflurane-anesthetized mice was acquired after 10 min in an IVIS Lumina II imaging device (Perkin Elmer) at adequate acquisition times (2 min for MonoMac-1, 30 s for KG1). The following quantitation and analysis were conducted with Aura Imaging software (Spectral Instruments Imaging). The last day of the experiment, mice were culled, and tibias and femurs were harvested. Engraftment was determined as the percentage of live human CD45-expressing cells in the bone marrow as assessed with flow cytometry. […]

Jurkat = assay: Pancancer cell line panel viability; type: cell-based; settings: 10 µM, 48 h
Description: as §1
(§2) AML cell lines and cell cultures
(§3) Cell lines HL-60 (ACC-3), KG-1 (ACC-14), MonoMac-1 (ACC-252), Kasumi-1 […]
(§4) obtained from DSMZ. Cell lines THP-1 (TIB-202TM), MCF-7 (HTB-22™), MDA- […]
(§5) 3216™) and HS-5 (CRL-11882™) were obtained from ATCC. HBL-2 cell line was kindly supplied by Dr. Pérez-Galán (IDIBAPS, Barcelona, Spain). SKM-1 and U937 were kindly provided by Dr. Marcus Buschbeck (IJC, Badalona, Spain). All cell lines were cultured in the conditions indicated by the providers, and were tested for mycoplasma on a monthly basis.
(§6) All drugs were resuspended in H2O (Thermo Fischer Scientific), DMSO (Sigma-Aldrich) or ethanol (VWR) according to manufacturer’s specifications. - tocopherol, 3-methyladenine (3MA), arsenic trioxide (ATO) and N-acetyl-L-cysteine (NAC) were purchased from Sigma Aldrich. Chloroquine diphosphate was purchased from Merck. Etoposide and ionomycin were purchased from […]
(§7) (1 picture or pasted object on this page, not shown here)

ACHN = assay: Pancancer cell line panel viability; type: cell-based; settings: 10 µM, 48 h
Description: as §1, §2, §3, §4, §5, §6, §7

## CN1CCC(=C2c3ccccc3-c3c2sc2ccccc32)CC1 [EDK-87]
AML cell lines
  oxygen consumption (OCR): drastic reduction in oxygen consumption
SKM-1
  EC50: 8.1 ± 1.8 µM
U937
  EC50: 6.9 ± 0.07 µM
HL60
  EC50: 6.2 ± 0.9 µM
KG1
  EC50: 7 ± 1.2 µM
MonoMac1
  EC50: 8.6 ± 1.4 µM
THP1
  EC50: 11.2 ± 0.01 µM
Kasumi-1
  EC50: 6.3 ± 0.35 µM
[1]
  metabolic rate as compared to EDK-88: higher
[2]
  EC50: 7.7 ± 0.7 µM
TFEB
  TFEB activity (reporter): activation of TFEB activity
MonoMac1 AML cells
  reduced the leukemic burden in the bone marrow: 58.44%
Jurkat
  # Live cells refer to control: 51%
ACHN
  # Live cells refer to control: 70%
